Assays:
PC12 cells [1] = test: Induction of neuronal outgrowth / neuronal differentiation in PC-12 cells; format: cell-based, rat; details: for neuronal differentiation / axonal outgrowth: data not shown; for neural outgrowth: 5 μM, after 8 days, microscope, FIG. 2
Method: (§1) In the presence of nerve growth factor these cells differentiate to neuronal cells. PC12 cells originated from rat pheochromocytoma were grown as monolayers in Eagle's medium (EM) supplemented with 10% fetal calf serum, 50 μg/ml gentamicin and 5 mM glutamine, in a humidified incubator buffered with 5% CO2, at 37° C. The culture medium is changed every four days and the cells are passaged every eight days and performed confluent monolayers (1.5×10^6 in a 10 cm plate or 10^5 cells per well in 24 wells plate). PC12 cells are originally round cells which, following several days in the presence of nerve growth factor (NGF) process nerves. Upon withdrawal of the NGF, the nerves retract and a process of apoptosis is initiated in the cells.
PC12 cells were grown in culture as explained above. The cells were divided into two groups and different compounds were added. To the first were added 5 μM 1,3-cyclic propandiol phosphate-5-caproylamido, while as a control to the second portion was added NGF. After a period of 8 days the two groups of PC12 cells were inspected by microscope.

CHO cells = test: Cell signaling analysis: tyrosine phosphorylation in CHO cells; format: cell-based, Chinese Hamster; details: for intracellular tyrosine phosphorylation: CHO cells, data not shown
Method: CHO cultures were grown as described above for PC12 cells. The cultures were divided into two groups and different compounds were added, followed by a period of incubation of from 1 to 30 minutes. Thus one CHO culture was incubated with 5 μM of 1,3-cyclic propandiol phosphate-2-methylamino at 37° C., the control being a similar CHO culture incubated with 1,3-cyclic glycerphosphate under the same conditions. […] In particular it was detected in a series of proteins with molecular weight of ≈35 kDa, ≈45 kDa, ≈60-70 kDa. as shown in FIG. 1.

Rat hippocampal neurons = test: Neuronal morphology of cultured hippocampal neurons (stage 3); format: cell-based; details: three days
Method: Rat hippocampal neurons were cultured at low density in defined medium as described previously (Brann et al., 2002, J Bio Chem 277(12): 9812-9818), with slight modifications. Briefly, the dissected hippocampi of embryonic day 18 rats were dissociated by trypsinization (0.25% w/v, for 15 min at 37° C.). The tissue was washed in Mg^2+/Ca^2+-free Hanks' balanced salt solution (Invitrogen) and dissociated by repeated passage through a constricted Pasteur pipette. Cells were plated in minimal essential medium with 10% horse serum at a density of 25,000 cells per 13-mm glass cover slips that had been precoated with poly-L-lysine (1 mg/ml). After 2-4 hr, cover slips were transferred into 24-well plates (Nunc), containing B27 supplemented Neurobasal medium (Brewer, G. et al., 1993, J Neurosci Res 35: 567-576), and cultures were maintained in this defined medium throughout the experiment.
For morphological analysis, cover slips were removed from the 24-well plates on the 3rd day of culture. Neurons were fixed in 1% (v/v) glutaraldehyde in phosphate-buffered-saline for 20 min at 37° C., and mounted for microscopic examination in 50% glycerol in phosphate-buffered-saline. Neurons were examined by phase contrast microscopy using an Achroplan 32x/0.4 n.a. phase 2 objective of a Zeiss Axiovert 35 microscope. Neuronal growth was analyzed based on established developmental criteria of cultured hippocampal neurons (Schwarz et al., 1995, J Bio Chem 270(18): 10990-10998; Brann et al., 1999, J Neurosci 19(19): 8199-8206) as follows: (i) Only neurons at stage 3 were analyzed in this study. […] (iii) Only those cells in which the whole axon plexus could be unambiguously delineated were measured. (iv) The number of axonal branch points per cell were measured. […]
Images of neurons were acquired using NIH image (version 1.62) software. The analyze mode was set to a proportional ratio scale of pixel to μm, the outline of the neuron was copied using the freehand line tool, and the line length measured and analyzed according to the morphological criteria outlined above. […]

PC12 cells [2] = test: Rescue of PC12 cells from NGF deprivation (nerve rescue); format: cell-based, rat; details: data not shown
Method: as §1
Similar effects were observed (data not shown) for the following compounds. […] 2-Benzyloxy 1,3-chloropropanediol phosphate (Example 16 above) was dissolved in ethanol and from there introduced by 1:1000 dilution into PC12 cultures.

Row | Compound | neuronal differentiation / axonal outgrowth (PC12 cells [1]) | intracellular tyrosine phosphorylation (CHO cells) | further results
1 | 2-caproimido 1,3-chloropropanediol phosphate [Example 17] | neuronal differentiation | induced tyrosine phosphorylation | –
2 | CCCCCC(=O)NC1COP(=O)(O)OC1 (stereo not shown) [Example 4, 1,3-cyclic propandiol phosphate-5-caproylamido] | – | – | neural outgrowth (PC12 cells [1]): promoted neural outgrowth
3 | CNC1COP(=O)(O)OC1 (stereo not shown) [Example 7, 1,3-cyclic propandiol phosphate-2-methylamino] | – | – | exposure time after which augmented tyrosine phosphorylation was noticed (CHO cells; CHO culture, 5 μM, 37° C.): ≤ 1 min; tyrosine phosphorylation of proteins (≈35 kDa, ≈45 kDa, ≈60-70 kDa) (CHO cells; CHO culture, 5 μM, 37° C., incubation 1 to 30 minutes, control 1,3-cyclic glycerphosphate, FIG. 1): Augmented tyrosine phosphorylation
4 | O=P1(O)OCCCO1 [Example 9, 1,3-cyclic propanediol phosphate] | triggering axonal outgrowth | – | total elongation of axon plexus compared to non-treated cells (Rat hippocampal neurons; pyramidal rat embryo hippocampal cells, 5 μM, FIG. 3): 32%; increase in length of the longest axon (main axon) compared to non-treated cells (Rat hippocampal neurons; pyramidal rat embryo hippocampal cells, 5 μM, FIG. 4): about 20%; increase in axonal branch points per cell compared with non-treated cells (Rat hippocampal neurons; rat embryo hippocampal cells, FIG. 5): about 47%
5 | CC1COP(=O)(O)OC1 (stereo not shown) [Example 10, 2-methyl 1,3-cyclic propanediol phosphate] | triggering axonal outgrowth | – | –
6 | NP1(=O)OCCCO1 [Example 13, 1,3-cyclic propanediol phosphoamidate] | did not induce neuronal differentiation | capable of inducing tyrosine phosphorylation | rescue from NGF deprivation (nerve rescue) (PC12 cells [2]): did rescue them from NGF deprivation
7 | CCNP1(=O)OCCCO1 [Example 14, 1,3-cyclic propanediol N-ethyl phosphoamidate] | did not induce neuronal differentiation | promoted tyrosine phosphorylation | –
8 | NGF: nerve growth factor, in whose presence PC12 cells differentiate to neuronal cells | – | – | neural outgrowth (PC12 cells [1]): did not exhibit such promotion of neural outgrowth

From patent US20060040901A1, “Derivatives of 1,3-cyclic propandiol phosphate and their action as cell stimulants” (YEDA RESEARCH AND DEVELOPMENT CO. Ltd., priority 2002, published 2006)
